Reference: ChEMBL document CHEMBL2346628, “Real-time analysis of membrane permeabilizing effects of oleanane saponins” (Bioorg Med Chem, 2013)
Calls of active or inactive are those of the source. No cut-off for these calls is given here.

Key:
[1] = Hemolytic activity against human RBC at 48 uM after 30 mins; type: ADME, cell-based; details: erythrocyte, 0.5 h
[2] = Hemolytic activity against human RBC at 24 uM after 30 mins relative to control; type: ADME, cell-based, Erythrocyte; details: red blood cells (RBC), read-out: Activity
[3] = Hemolytic activity against human RBC up to 12 uM after 30 mins; type: ADME, cell-based; details: erythrocyte, 0.5 h
ECV-304 [4] = assay: Membrane permeabilization effect on lysosome of human ECV304 cells assessed as induction of membrane lysis at 3 to 48 uM after 1 hr by N-Acetylglucosaminidase release assay; type: functional, cell-based
ECV-304 [5] = assay: Membrane permeabilization effect on lysosome of human ECV304 cells assessed as induction of membrane lysis up to 6 uM after 1 hr by N-Acetylglucosaminidase release assay; type: functional, cell-based
ECV-304 [6] = assay: Membrane permeabilization effect on human ECV304 cells assessed as propidium iodide uptake at 3 to 48 uM after 1 hr by FACS flow cytometric analysis; type: functional, cell-based
ECV-304 [7] = assay: Membrane permeabilization on human ECV304 cells at 24 uM measured every 15 secs for 3 hrs by real time impedance-based plate reader analysis; type: functional, cell-based
[8] = Hemolytic activity against human RBC at 12 uM after 30 mins relative to control; type: ADME, cell-based, Erythrocyte; details: red blood cells (RBC), read-out: Activity
[9] = Hemolytic activity against human RBC at 6 uM after 30 mins relative to control; type: ADME, cell-based, Erythrocyte; details: red blood cells (RBC), read-out: Activity
[10] = Hemolytic activity against human RBC at 3 uM after 30 mins relative to control; type: ADME, cell-based, Erythrocyte; details: red blood cells (RBC), read-out: Activity
ECV-304 [11] = assay: Membrane permeabilization effect on lysosome of human ECV304 cells at 6 to 48 uM after 1 hr by N-Acetylglucosaminidase release assay; type: functional, cell-based
ECV-304 [12] = assay: Membrane permeabilization effect on human ECV304 cells assessed as induction of membrane lysis at 48 uM after 1 hr; type: functional, cell-based
ECV-304 [13] = assay: Membrane permeabilization effect on human ECV304 cells assessed as increase in propidium iodide uptake at 24 uM after 1 hr by FACS flow cytometric analysis; type: functional, cell-based
ECV-304 [14] = assay: Membrane permeabilization effect on human ECV304 cells at 3 uM measured every 15 secs for 3 hrs by real time impedance-based plate reader analysis; type: functional, cell-based
[15] = Hemolytic activity against human RBC at 1.5 to 48 uM after 30 mins; type: ADME, cell-based; details: erythrocyte, 0.5 h
ECV-304 [16] = assay: Membrane permeabilization effect on lysosome of human ECV304 cells up to 48 uM after 1 hr by N-Acetylglucosaminidase release assay; type: functional, cell-based
ECV-304 [17] = assay: Membrane permeabilization effect on human ECV304 cells assessed as propidium iodide uptake up to 48 uM after 1 hr by FACS flow cytometric analysis; type: functional, cell-based
ECV-304 [18] = assay: Membrane permeabilization effect on human ECV304 cells assessed as normalized cell index at 24 uM measured every 15 secs for 3 hrs by real time impedance-based plate reader analysis relative to control relative to control; type: functional
ECV-304 [19] = assay: Membrane permeabilization effect on human ECV304 cells assessed as normalized cell index at 12 uM measured every 15 secs for 3 hrs by real time impedance-based plate reader analysis relative to control; type: functional
ECV-304 [20] = assay: Membrane permeabilization effect on human ECV304 cells at 3 to 6 uM measured every 15 secs for 3 hrs by real time impedance-based plate reader analysis; type: functional, cell-based
ECV-304 [21] = assay: Membrane permeabilization effect on human ECV304 cells at 3 to 24 uM measured every 15 secs for 3 hrs by real time impedance-based plate reader analysis; type: functional, cell-based

With `CCC(C)C(CC(O)CC(=O)O[C@H]1[C@@H](O)[C@@H](C)O[C@@H](OC(=O)[C@]23CCC(C)(C)C[C@H]2C2=CC[C@@H]4[C@@]5(C)CC[C@H](O[C@H]6O[C@H](C(=O)O)[C@@H](O)[C@H](O[C@@H]7OC[C@@H](O)[C@H](O)[C@H]7O)[C@H]6O[C@@H]6O[C@H](CO)[C@H](O)[C@H](O)[C@H]6O)[C@@](C)(C=O)[C@@H]5CC[C@@]4(C)[C@]2(C)C[C@H]3O)[C@@H]1O[C@@H]1O[C@@H](C)[C@H](O[C@@H]2OC[C@@H](O)[C@H](O[C@@H]3OCC(O)(O)[C@H]3O)[C@H]2O)[C@@H](O[C@@H]2O[C@H](CO)[C@@H](O)[C@H](O)[C@H]2O)[C@H]1O)OC(=O)CC(O)CC(O[C@@H]1O[C@@H](CO)[C@H](O)[C@H]1O[C@@H]1O[C@@H](C)[C@H](O)[C@@H](O)[C@H]1O)C(C)CC` (stereo in doubt; form 2) [listing 1 of 2 here] the Activity [1] was “Toxic”, the hemolysis at 0.5 h, 24 µM [2] was 61% and the Activity [3] was “Non-toxic”.
With `CCC(C)C(CC(O)CC(=O)O[C@H]1[C@@H](O)[C@@H](C)O[C@@H](OC(=O)[C@]23CCC(C)(C)C[C@H]2C2=CC[C@@H]4[C@@]5(C)CC[C@H](O[C@H]6O[C@H](C(=O)O)[C@@H](O)[C@H](O[C@@H]7OC[C@@H](O)[C@H](O)[C@H]7O)[C@H]6O[C@@H]6O[C@H](CO)[C@H](O)[C@H](O)[C@H]6O)[C@@](C)(C=O)[C@@H]5CC[C@@]4(C)[C@]2(C)C[C@H]3O)[C@@H]1O[C@@H]1O[C@@H](C)[C@H](O[C@@H]2OC[C@@H](O)[C@H](O[C@@H]3OCC(O)(O)[C@H]3O)[C@H]2O)[C@@H](O[C@@H]2O[C@H](CO)[C@@H](O)[C@H](O)[C@H]2O)[C@H]1O)OC(=O)CC(O)CC(O[C@@H]1O[C@@H](CO)[C@H](O)[C@H]1O[C@@H]1O[C@@H](C)[C@H](O)[C@@H](O)[C@H]1O)C(C)CC` (stereo in doubt; form 2) [listing 2 of 2 here] the Activity (ECV-304 [4]) was “inactive”, the Activity (ECV-304 [5]) was “inactive” and the Activity (ECV-304 [6]) was “inactive”. The Activity (ECV-304 [7]) was “inactive”.
Work on `C[C@@H]1CC[C@@]2(OC1)O[C@H]1[C@@H](O)[C@H]3[C@@H]4CC[C@H]5C[C@@H](O[C@@H]6O[C@H](CO)[C@H](O[C@@H]7O[C@H](CO)C(O)[C@H](O[C@@H]8OC[C@@H](O)[C@H](O)[C@H]8O)[C@H]7O[C@@H]7O[C@H](CO)[C@H](O)[C@H](O[C@@H]8O[C@H](CO)[C@@H](O)[C@H](O)[C@H]8O)[C@H]7O)[C@H](O)[C@H]6O)[C@H](O)C[C@]5(C)[C@H]4CC[C@]3(C)[C@H]1[C@@H]2C` (stereo partly drawn) [DIGITONIN] yielded a hemolysis at 0.5 h, 12 µM [8] of over 80%, a hemolysis at 0.5 h, 6 µM [9] of 68% and a hemolysis at 0.5 h, 3 µM [10] of 22%. The Activity (ECV-304 [5]) was “inactive”, the Activity (ECV-304 [11]) was “Active” and the Activity (ECV-304 [12]) was “Active”. The Activity (ECV-304 [13]) was “Active” and the Activity (ECV-304 [14]) was “Active”.
For `CC1(C)[C@@H](O[C@H]2O[C@H](C(=O)O)[C@@H](O)[C@H](O)[C@H]2O[C@@H]2O[C@H](C(=O)O)[C@@H](O)[C@H](O)[C@H]2O)CC[C@]2(C)[C@H]3C(=O)C=C4[C@@H]5C[C@@](C)(C(=O)O)CC[C@]5(C)CC[C@@]4(C)[C@]3(C)CC[C@@H]12` [GLYCYRRHIZIN], the Activity [15] was “Non-toxic”, the Activity (ECV-304 [5]) was “inactive” and the Activity (ECV-304 [16]) was “inactive”. For the same molecule, the Activity (ECV-304 [17]) was “inactive”, the Activity (ECV-304 [18]) was “inactive” and the Activity (ECV-304 [19]) was “inactive”. For the same molecule, the Activity (ECV-304 [20]) was “inactive” and the Activity (ECV-304 [21]) was “inactive”.
